# From patent US20030186816A1, “Herbicide combinations comprising specific sulfonylureas” (Bayer CropScience GmbH, priority 2002, published 2003)
# Experiments:
# Type in all cases: in vivo
# Wheat = experiment: Crop damage in outdoor trials; details: 750 g of AS/ha, scored approx. 4-6 weeks after application, trial with Avena ludoviciana
# Experimental: (§1) Herbicidal Action (Outdoor Trials)
# (§2) The seeds or rhizome pieces of typical harmful plants were planted and grown under natural outdoor conditions. After the harmful plants had emerged, they were treated, as a rule at the 2- to 4-leaf stage, with various dosages of the compositions according to the invention at a water application rate of 100 to 400 l/ha (converted).
# (§3) After the treatment (approx. 4-6 weeks after application), the herbidical activity of the active compounds or active compound mixtures was scored visually by comparing the treated plots with the untreated control plots. Damage and development of all above-ground parts of the plants was recorded. Scoring was done on a percentage scale (100% action=all plants dead; 50% action=50% of the plants and green plant parts dead; 0% action=no discernible action=like control plot). The score figures of in each case 4 plots were averaged. The results are listed in the tables below, where the activity measured for the independent use of the active compounds (A+B) and C) is stated in brackets.
# Avena ludoviciana = experiment: Herbicidal action (outdoor trials); details: 750 g of AS/ha, scored approx. 4-6 weeks after application
# Experimental: as §1, §2, §3
# Winter wheat = experiment: Crop damage in outdoor trials
# Experimental: as §1, §2, §3
# Papaver rhoeas = experiment: Herbicidal action (outdoor trials); details: scored approx. 4-6 weeks after application
# Experimental: as §1, §2, §3
# Veronic pericaria = experiment: Herbicidal action (outdoor trials); details: 150 g of AS/ha, scored approx. 4-6 weeks after application
# Experimental: as §1, §2, §3
# Summer wheat = experiment: Crop damage in outdoor trials; details: 30 g of AS/ha, scored approx. 4-6 weeks after application
# Experimental: as §1, §2, §3
# Aspera spica venti = experiment: Herbicidal action (outdoor trials); details: 30 g of AS/ha, scored approx. 4-6 weeks after application
# Experimental: as §1, §2, §3
# Polygonum convolvulus = experiment: Herbicidal action (outdoor trials); details: 30 g of AS/ha, scored approx. 4-6 weeks after application
# Experimental: as §1, §2, §3
# Brassica naupus = experiment: Herbicidal action (outdoor trials); details: 30 g of AS/ha, scored approx. 4-6 weeks after application
# Experimental: as §1, §2, §3
# Physalis spp. = experiment: Herbicidal action (outdoor trials); details: 30 g of AS/ha, scored approx. 4-6 weeks after application
# Experimental: as §1, §2, §3
compound,measurement,setting,value
"Cc1cc(Cl)ccc1OCC(=O)O [C), (4-chloro-2-methylphenoxy)acetic acid]",Wheat wheat % damage,Wheat,0%
same,Avena ludoviciana % activity,Avena ludoviciana,0%
"COc1nc(C)nc(NC(=O)NS(=O)(=O)c2ccccc2OCCCl)n1 [D), 1-[2-(2-chloroethoxy)phenylsulfonyl]-3-(4-methoxy-6-methyl-1,3,5-triazin-2-yl)urea]",Winter wheat % damage,"Winter wheat; 15 g of AS/ha, outdoor, scored approx. 4-6 weeks after application, trial with Papaver rhoeas",0%
same,Papaver rhoeas % activity,Papaver rhoeas; 15 g of AS/ha,65%
"N#Cc1cc(Br)c(O)c(Br)c1 [E), 3,5-dibromo-4-hydroxy-benzonitrile]",Winter wheat % damage,"Winter wheat; 240 g of AS/ha, outdoor, scored approx. 4-6 weeks after application, trial with Papaver rhoeas",0%
same,Papaver rhoeas % activity,Papaver rhoeas; 240 g of AS/ha,85%
"Nc1c(Cl)c(F)nc(OCC(=O)O)c1Cl [I), 4-amino-3,5-dichloro-6-fluoro-2-pyridyloxy acetic acid]",Winter wheat % damage,Winter wheat; in vivo,1%
same,Veronic pericaria % activity,Veronic pericaria,50%
"CCOC(=O)[C@@H](C)Oc1ccc(Oc2nc3ccc(Cl)cc3o2)cc1 [J), fenoxaprop-P-ethyl]",Summer wheat % damage,Summer wheat,0%
same,Aspera spica venti % activity,Aspera spica venti,25%
same,Polygonum convolvulus % activity,Polygonum convolvulus,0%
same,Brassica naupus % activity,Brassica naupus,0%
same,Physalis spp. % activity,Physalis spp.,0%
